This note sets out measurements from paper PMC6273138, “Inhibitory Effects of Aschantin on Cytochrome P450 and Uridine 5′-diphospho-glucuronosyltransferase Enzyme Activities in Human Liver Microsomes” (Molecules, 2016).

As usually defined, the kinact is the maximal first-order rate at which the target is inactivated. A word on the IC50: it is the concentration needed to halve the response being measured. Low readings indicate higher potency, high ones lower potency.

Common to all, as to format: in vitro ADME
One series has as its target T1, CYP2C8 (Homo sapiens, UniProt P10632).
T1 sequence (P10632 1-490): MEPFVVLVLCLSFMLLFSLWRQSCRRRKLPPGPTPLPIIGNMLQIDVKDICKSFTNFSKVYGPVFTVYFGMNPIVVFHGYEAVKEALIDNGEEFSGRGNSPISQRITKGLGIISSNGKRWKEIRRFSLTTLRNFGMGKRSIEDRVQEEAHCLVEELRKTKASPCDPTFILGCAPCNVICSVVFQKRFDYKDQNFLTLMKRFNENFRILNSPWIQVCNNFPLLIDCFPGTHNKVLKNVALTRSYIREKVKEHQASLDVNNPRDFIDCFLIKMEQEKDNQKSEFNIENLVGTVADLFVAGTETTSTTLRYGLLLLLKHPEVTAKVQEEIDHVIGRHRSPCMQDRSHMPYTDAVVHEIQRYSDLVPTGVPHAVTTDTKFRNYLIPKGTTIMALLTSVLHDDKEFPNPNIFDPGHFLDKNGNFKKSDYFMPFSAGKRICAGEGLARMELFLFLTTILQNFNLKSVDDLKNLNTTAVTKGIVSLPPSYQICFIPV
Put plainly: Mechanism-based (time- and concentration-dependent) inactivation of CYP2C8 in human liver microsomes. Particulars: CYP2C8-mediated amodiaquine N-de-ethylation. The method, then:
(§1) The microsomes (1 mg/mL) were pre-incubated with various concentrations of aschantin in 50 mM potassium phosphate buffer (pH 7.4) in the presence of NADPH. Aliquots (10 µL) of the incubated mixtures were withdrawn at 5, 10, 15, and 20 min after incubation commenced and added to other tubes containing the CYP substrates (2 µM amodiaquine for CYP2C8, 10 µM diclofenac for CYP2C9, 100 µM [S]-mephenytoin for CYP2C19, or 2 µM midazolam for CYP3A4), 1 mM NADPH, 50 mM potassium phosphate buffer (pH 7.4), and 10 mM MgCl2, in 90 µL reaction mixtures. […] Aliquots (5 µL) of the diluted supernatants were analyzed by LC-MS/MS, as described above.
In general terms: Microsomes from liver hold many membrane-bound enzymes, among them those of drug oxidation.

The target in a further series is T2, UGT1A3 (Homo sapiens, UniProt P35503).
T2 construct: using pooled human liver microsomes incubated with the cocktail of UGT substrates; tissue Corning Life Sciences 452161; host or cells: pooled human liver microsomes
T2 sequence (P35503 29-534): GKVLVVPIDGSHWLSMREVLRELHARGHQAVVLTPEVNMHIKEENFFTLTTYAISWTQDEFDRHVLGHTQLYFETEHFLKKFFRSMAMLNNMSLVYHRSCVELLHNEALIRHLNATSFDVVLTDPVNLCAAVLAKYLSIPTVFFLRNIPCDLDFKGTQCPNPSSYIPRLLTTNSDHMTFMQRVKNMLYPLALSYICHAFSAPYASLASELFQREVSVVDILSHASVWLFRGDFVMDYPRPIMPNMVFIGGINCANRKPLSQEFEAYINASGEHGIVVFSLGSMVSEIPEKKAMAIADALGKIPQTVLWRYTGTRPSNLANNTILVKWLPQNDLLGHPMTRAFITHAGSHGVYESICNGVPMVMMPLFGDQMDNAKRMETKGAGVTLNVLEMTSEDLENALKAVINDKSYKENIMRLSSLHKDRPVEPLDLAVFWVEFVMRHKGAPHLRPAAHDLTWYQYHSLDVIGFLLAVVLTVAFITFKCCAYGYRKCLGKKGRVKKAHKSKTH
Put plainly: UGT1A3-catalyzed chenodeoxycholic acid 24-acyl-glucuronidation inhibition in pooled human liver microsomes. Here is the method: The extents of aschantin on UGT1A1, UGT1A3, UGT1A4, UGT1A6, UGT1A9, and UGT2B7 were evaluated by LC-MS/MS, using pooled human liver microsomes incubated with the cocktail of UGT substrates. The method was modified from that of Joo et al..
The metabolites formed from the six UGT cocktail substrates were simultaneously measured using the LC-MS/MS method. […] The mass spectrometer was equipped with an ESI source and was operated in both positive and negative ion modes. […] Each metabolite was quantified via SRM in the negative ion (chenodeoxycholic acid 24-acyl-β-glucuronide, 567.2 > 391.0; mycophenolic acid glucuronide, 495.2 > 318.9; propofol glucuronide, 353.3 > 177.1) and positive ion (SN-38 glucuronide, 569.0 > 393.0; trifluoperazine glucuronide, 584.2 > 408.1; N-acetylserotonin-β-D-glucuronide, 395.2 > 219.0; naloxone 3-β-D-glucuronide, 504.0 > 310.0; meloxicam, 352.0 > 115.1) modes.

A further series addresses CYP2C19 (Homo sapiens, UniProt P33261). Put plainly: Mechanism-based (time- and concentration-dependent) inactivation of CYP2C19 in human liver microsomes. As to conditions: CYP2C19-mediated [S]-mephenytoin 4′-hydroxylation. The method, then:
as §1

Chain of CYP2C19 (P33261 whole entry): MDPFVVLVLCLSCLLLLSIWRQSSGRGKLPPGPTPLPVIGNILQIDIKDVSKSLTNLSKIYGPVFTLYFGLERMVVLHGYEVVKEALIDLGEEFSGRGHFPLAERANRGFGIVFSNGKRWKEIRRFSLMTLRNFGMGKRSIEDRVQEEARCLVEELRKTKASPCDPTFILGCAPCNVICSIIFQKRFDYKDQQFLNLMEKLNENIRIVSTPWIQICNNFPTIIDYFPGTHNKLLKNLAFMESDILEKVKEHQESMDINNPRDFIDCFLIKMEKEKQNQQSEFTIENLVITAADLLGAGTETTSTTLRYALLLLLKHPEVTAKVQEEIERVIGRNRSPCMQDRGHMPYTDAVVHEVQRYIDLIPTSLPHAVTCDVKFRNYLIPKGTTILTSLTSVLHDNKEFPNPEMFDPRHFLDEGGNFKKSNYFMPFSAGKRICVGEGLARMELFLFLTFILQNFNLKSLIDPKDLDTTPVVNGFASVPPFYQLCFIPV

Regarding `COc1cc([C@H]2OC[C@H]3[C@@H]2CO[C@@H]3c2ccc3c(c2)OCO3)cc(OC)c1OC` [Aschantin], the figures for the Ki on CYP2C8 (read-out: Ki (apparent)) and at CYP2C19 (read-out: Ki (apparent)) were 10.2 µM and 5.8 µM, respectively. The kinact at CYP2C8 (pH 7.4, probe amodiaquine (2 µM)) was 0.000933 s⁻¹; at CYP2C19 (pH 7.4, probe [S]-mephenytoin (100 µM)), 0.0008 s⁻¹. Further, the IC50 against UGT1A3 (UGT1A3-catalyzed chenodeoxycholic acid 24-acyl-glucuronidation, 2 µM chenodeoxycholic acid, pooled human liver microsomes) is above 200 µM. Besides, the “inhibition of UGT1A3-catalyzed chenodeoxycholic acid 24-acyl-glucuronidation” value on UGT1A3 (aschantin at 200 µM, human liver microsomes) was “not inhibited”.
